The text below walks through data of patent publication US10641781B2, “Method, composition and device for sampling natriuretic peptides in a biological fluid” (CRIMSON U.S. ASSETS, LLC, priority 2008, dated 2020).

One series concerns BNP1-32 hydrolysis. The series can be described thus: BNP1-32 hydrolysis in heparin plasma treated with protease inhibitors, room temperature, MSIA. Type of series: biochemical, human. As to conditions: for effect on BNP hydrolysis: BNP1-32 10 ng/mL. The text has this:
(§1) In order to observe, characterize and identify the BNP hydrolysis products a Mass Spectrometric Immunoassay (MSIA) was developed and employed in the analysis of BNP. This technique is broadly described in, e.g., Nelson et al. (1995) Anal. Chem. 67, 1153-1158; Tubbs et al. (2001) Anal. Biochem. 289, 26-35; Kiernan et al. (2002) Anal. Biochem. 301, 49-56; Niederkofler et al. (2003) J. Lipid Res. 44, 630-639 and U.S. Pat. Nos. 6,783,672; 6,974,704; 7,083,723; 7,083,724; 7,087,163; 7,087,164; 7,087,165; and 7,087,163. The basic methodology is described in the context of BNP although the technique is also applicable to ANP and other peptides of interest.
(§2) Briefly, MSIA entails the use of affinity capture, to extract BNP and many of its' hydrolysis products for mass spectrometric detection, to observe and identify products of BNP hydrolysis. Therefore, synthesized BNP1-32 was added to room temperature plasma (from blood collected in heparinized blood collection tubes). At a several times post-spiking BNP1-32 into the plasma, aliquots of the spiked plasma were analyzed to monitor the progress of BNP1-32 hydrolysis. The results of performing a series of analyses on aliquots removed and analyzed every hour for up to six hours post-addition of BNP1-32 at 100 ng/mL are shown in FIG. 2. […] The last two species are indistinguishable in the chart due to similar amino acid compositions. […]
Next, the individual protease inhibitors, including some of those included in protease inhibitor cocktail set III (EMD) were tested using the protocols described supra. Briefly, aliquots of heparin plasma were treated with each one of the protease inhibitors. To each aliquot of plasma, BNP1-32 was added at 10 ng/mL and incubated at room temperature. Aliquots were sequentially removed and analyzed for BNP hydrolysis.
Briefly, aliquots of heparin plasma were treated with each one of these protease inhibitors. To each aliquot of plasma, BNP1-32 was added at 10 ng/mL and incubated at room temperature. Aliquots were sequentially removed and analyzed for BNP hydrolysis.
Further testing added to the list of inexpensive protease inhibitors effective in combination with AEB SF in avoiding adducts starting with benzamidine hydrochloride (Calbiochem catalog no. 199001). […] Briefly, aliquots of heparin plasma were treated with the protease inhibitor. To each aliquot of plasma, BNP1-32 was added at 10 ng/mL and incubated at room temperature. Aliquots were sequentially removed and analyzed for BNP hydrolysis.
In addition, PPACK I dihydrochloride (Calbiochem catalog no. 520222) and PPACK II trifluoroacetate salt (Calbiochem catalog no. 520219) were also tested at a concentration of 1 mM each. […]

The next series relates to proteolysis of BNP. As to conditions: sampled blood or plasma; cited from earlier work.
Series [1] can be described thus: Time course of BNP1-32 hydrolysis in plasma without inhibitor, by mass spectrometric immunoassay (MSIA). It is filed as in vitro ADME, human. As to conditions: heparin plasma, no inhibitor, room temperature, BNP1-32 at 100 ng/mL, four hours after addition.
Text: as §1, §2

For series [2] the following is noted: after separation of plasma from whole blood; cited from earlier work.
For series [3] the following is noted: cited from earlier work.
In series [4] the test system is BNP hydrolysis. The series can be described thus: BNP hydrolysis in EDTA versus heparin plasma at room temperature, MSIA. Type of series: biochemical, human. As to conditions: plasma spiked with BNP1-32, room temperature, aliquots at 1 hour and 2 hours. The protocol:
Blood from a single individual was collected in both heparin and EDTA blood collection tubes. The collected blood was centrifuged to remove cellular components and the supernatant (plasma) was collected. To the EDTA and heparin plasma, BNP1-32 was added and incubated at room temperature with aliquots removed for analysis of BNP hydrolysis at 1 hour and 2 hours.

Series [5] deals with BNP hydrolysis. The series can be described thus: BNP stability in plasma stored at -70 C, MSIA. Type of series: biochemical, human. As to conditions: tested on day of collection and six months later. How it is done: The limited proteolysis prior to the addition of the protease inhibitors is preserved in the sample. The sampled plasma was assayed for the presence of BNP fragments on the day of collection and then six month later. […] This may reflect the presence of metalloproteinases in heparinized blood.
To examine this, BNP peptides corresponding to those previously identified as products resulting from the hydrolysis of BNP1-32 were synthesized and added to EDTA plasma treated with 10 mM AEBSF and 20 mM Benzamidine. An aliquot of the sample was analyzed for the added BNP peptides soon after the addition of the peptides to the plasma, while the rest of the plasma was stored at −70° C. for 7 weeks. After 7 weeks of storage the plasma was removed from the freezer, thawed and analyzed for the existence of the added BNP peptides.

For series [6] the following is noted: weak basic conditions (pH 8-9); cited from earlier work.

“Also recorded” adds a separate entry of the source. Structures can show the parent of a compound that is named as a salt. Where a SMILES comes first, the peptide text is derived from it. [ ]: non-standard residue; d: D form. The star is where a group is joined. Sta = CC(C)C[C@H](N)[C@@H](O)CC(=O)O; Isovaleryl = CC(C)CC(=O)*; CH2Cl = ClC*

On to `CC(=O)N[C@@H](CC(C)C)C(=O)N[C@@H](CC(C)C)C(=O)N[C@H](C=O)CCCNC(=N)N` [Leupeptin], for which the “effect on BNP hydrolysis” value is on record as “slowed the hydrolysis of BNP” with BNP1-32 hydrolysis (inhibitor at 0.1 mM) and “slow BNP proteolysis” with BNP1-32 hydrolysis (inhibitor at 1 mM).
In the case of `NC(N)=NCCC[C@H](NC(=O)[C@@H]1CCCN1C(=O)[C@H](N)Cc1ccccc1)C(=O)CCl` [PPACK], in the series on proteolysis of BNP, the “effectiveness in arresting proteolysis of BNP” value is “most effective in arresting proteolysis of BNP”.
As for `CC(C)CC(=O)N[C@H](C(=O)N[C@H](C(=O)N[C@@H](CC(C)C)[C@@H](O)CC(=O)N[C@@H](C)C(=O)N[C@@H](CC(C)C)[C@@H](O)CC(=O)O)C(C)C)C(C)C` [Pepstatin A] (Isovaleryl-VV[Sta]A[Sta]-OH), the “effect on BNP hydrolysis” value in the series on BNP1-32 hydrolysis (inhibitor at 0.1 mM) was “little or no effect on BNP proteolysis; also recorded: did not appreciably prevent the hydrolysis of BNP”.
In the case of `Cl.Cl.NC(N)=NCCC[C@H](NC(=O)[C@@H]1CCCN1C(=O)[C@H](N)Cc1ccccc1)C(=O)CCl` [PPACK I], in the series with BNP1-32 hydrolysis (inhibitor at 1 mM), the “effect on BNP hydrolysis” value was “slowed the rate of BNP hydrolysis; also recorded: reduced BNP proteolysis”.
Regarding “BNP1-32: 32-amino acid B-type natriuretic peptide; synthesized BNP1-32 spiked into plasma”, the “hydrolysis of BNP1-32 in plasma” value in series [1] is recorded as “all of the BNP1-32 appears to have been processed into smaller peptides”. Also, the “time within which BNP is proteolyzed in vitro” value in series [2] is no more than 24 h. Moreover, in series [3], the “half-life (t1/2) in vivo” value is on record as “approximately 20 minutes”.
As to `CC(C)C[C@H](NC(=O)[C@@H](O)[C@H](N)Cc1ccccc1)C(=O)O` [Bestatin], the “effect on BNP hydrolysis” value in the series on BNP1-32 hydrolysis (inhibitor at 0.5 mM) is given as “little or no effect on BNP proteolysis; also recorded: did not appreciably prevent the hydrolysis of BNP”.
In the case of `O=C([O-])CN(CCN(CC(=O)[O-])CC(=O)O)CC(=O)[O-].[Na+].[Na+].[Na+]` [EDTA, ethylenediamine tetracetic acid], the “effect of anti-coagulant on BNP hydrolysis” value with BNP hydrolysis [4] was “BNP hydrolysis stops with the formation of the BNP3-32; also recorded: reduce BNP hydrolysis”. Moreover, in the series with BNP hydrolysis [5], the “BNP hydrolysis in EDTA plasma without protease inhibitors” value is on record as “the hydrolysis stops at the formation of the BNP3-32; also recorded: proteolysis of BNP1-32 leading to the formation of BNP3-32”.
For Heparin, the “effect of anti-coagulant on BNP hydrolysis” value in the series with BNP hydrolysis [4] is listed as “relatively ineffective in preventing BNP proteolysis”; in the series with BNP hydrolysis [4] (listed as heparin), “progress towards the production of BNP hydrolysis products smaller than the BNP3-32”.
With `CC(C)C[C@H](NC(=O)[C@H]1O[C@@H]1C(=O)O)C(=O)NCCCCN=C(N)N` [E64], in the series on BNP1-32 hydrolysis (inhibitor at 1 mM), the “effect on BNP hydrolysis” value is given as “little or no effect on BNP proteolysis; also recorded: did not appreciably prevent the hydrolysis of BNP”.
On to `Cl.NCCc1ccc(S(=O)(=O)F)cc1` [AEBSF, 4-(2-Aminoethyl) benzenesulfonyl fluoride hydrochloride], for which the “effect on BNP hydrolysis” value was “slowed the hydrolysis of BNP; also recorded: reduced BNP proteolysis” in the series on BNP1-32 hydrolysis (inhibitor at 1 mM, hydrochloride); “almost completely inhibited the hydrolysis of BNP; also recorded: reduced BNP proteolysis” in the series on BNP1-32 hydrolysis (inhibitor at 2.5 mM, hydrochloride); “almost completely inhibited the hydrolysis of BNP; also recorded: reduced BNP proteolysis” with BNP1-32 hydrolysis (inhibitor at 5 mM, hydrochloride). In series [6], the “hydrolysis of the inhibitor” value is given as “slow hydrolysis”.
As to `NC(N)=NCCC[C@H](NC(=O)[C@H](Cc1ccccc1)NC(=O)[C@H](N)Cc1ccccc1)C(=O)CCl` [PPACK II] (H-[dF]-Phe-Arg-CH2Cl), the “effect on BNP hydrolysis” value in the series on BNP1-32 hydrolysis (inhibitor at 1 mM) is “slowed the rate of BNP hydrolysis; also recorded: reduced BNP proteolysis”.
As to `N=C(N)c1ccccc1` [Benzamidine hydrochloride, Benzamidine], the “effectiveness in slowing BNP hydrolysis relative to other inhibitors” value in the series with BNP1-32 hydrolysis (1 mM) is “better than PPACK I and PPACK II, but it was not as effective as AEBSF”. In addition, the “effect on BNP hydrolysis” value is listed as “slowed the hydrolysis of BNP” in the series on BNP1-32 hydrolysis (inhibitor at 1 mM) and “reduced BNP proteolysis” in the series on BNP1-32 hydrolysis (inhibitor at 1 mM, listed as Benzamidine).
